Reference: publication PMC6430500, “3-Fluoro-4-hydroxyprolines: Synthesis, Conformational Analysis, and Stereoselective Recognition by the VHL E3 Ubiquitin Ligase for Targeted Protein Degradation” (Journal of the American Chemical Society, 2018)

Biological target: T1, VBC and Brd4BD2 (Homo sapiens, UniProt O60885+P40337)
T1 construct: VHL (54–213), ElonginC (17–112) and; Brd4BD2 (333–460); His6 (N, cleaved yes); made in house; host or cells: E. coli BL21(DE3)
Assay: ITC ternary complex formation, VBC titrated into PROTAC:Brd4BD2
Format: binding
Details: for α (cooperativity): Kd binary,VBC/Kd ternary; for α (cooperativity) / ΔΔG: Brd4BD2; for Kd / ΔG / ΔH / –TΔS: PROTAC:Brd4BD2 in cell, VBC in syringe; for ΔΔG: ternary vs binary
Source text: structure (C2 R, C3 S, C4 R) assumed on the basis of unchanging stereogenic centres in the synthesis.
Final R(F) = 0.033, wR(F 2) = 0.085 for 275 parameters and 3901 reflections with I > 2σ(I) (corresponding R-values based on all 4067 reflections = 0.035 and 0.086, respectively), CCDC […]
Protein expression and purification.
Wild-type versions of human proteins VHL (UniProt accession number: P40337), ElonginC […]
expression. For expression of VBC, N-terminally His6-tagged VHL (54–213), ElonginC (17–112) and ElonginB (1–104) were co- expressed in Escherichia coli BL21(DE3) at 24 °C for 16 h using 0.3 mM isopropyl β-D -1-thiogalactopyranoside (IPTG). E. coli cells were lysed using a pressure cell homogenizer (Stansted Fluid Power) and lysate clarified by centrifugation. His6-tagged VCB was purified on a HisTrap FF affinity column (GE Healthcare) by elution with an imidazole gradient. The His6tag was removed using TEV protease and the untagged complex dialyzed into low -concentration imidazole buffer. VCB was then flowed through the HisTrap FF column a second time, allowing impurities to bind, as the complex eluted without binding. VCB was then additionally purified by anion exchange and size-exclusion chromatography using ResourceQ and Superdex-75 columns (GE Healthcare), respectively. The final purified complex was stored in 20 mM Bis–Tris, pH 7, 150 mM sodium chloride and 1 mM dithiothreitol (DTT). Brd2BD1 (71–194), and Brd4BD2 (333–460) were expressed with an N-terminal His6 tag in E. coli BL21(DE3) at 18 °C for 20 h using 0.2 mM IPTG.
His6-tagged BDs were purified on nickel Sepharose 6 fast flow beads (GE Healthcare) by elution with increasing concentrations of imidazole. For crystallography the His6-tagged BD was cleaved with TEV protease and dialyzed into low-concentration imidazole buffer. The BD was then flowed over the nickel beads a second time to remove impurities and protease. BDs were then additionally purified by size-exclusion chromatography using a Superdex-75 column. The BDs were purified by size-exclusion chromatography using a Superdex-75 column. The final purified proteins were stored in 20 mM 4-(2-hydroxyethyl)-1-piperazineethanesulfonic acid (HEPES), pH 7.5, 150 mM sodium chloride and 1 mM DTT. All chromatography purification steps were performed using Äkta FPLC purification systems (GE Healthcare) or glass econo-columns (Bio-Rad) at room temperature.
Isothermal titration calorimetry (ITC) of peptides and ligands
Titrations were performed on an ITC200 micro-calorimeter (GE Healthcare). The peptides were dissolved in buffer (20 mM Bis–Tris propane, 100 mM NaCl, 1 mM tris(2-carboxyethyl)phosphine […]
(TCEP), pH 7.4) at 100 µM. The compounds were titrated against 10 µM VBC complex, equilibrated in the same buffer. The titrations consisted of 20 injections of 2 µL of peptide solution at a rate of 0.5 µL/s at 120 s time intervals. An initial injection of ligand (0.4 µL) was made and discarded during data analysis. All experiments were performed at 25°C while stirring at 650 rpm.
Ligands 14a- b were diluted from DMSO stock solution to 300 µM in buffer (20 mM Bis-Tris propane, 150 mM NaCl, 1 mM TCEP, pH 7.4). The compounds were titrated against 30 µM VBC complex, equilibrated in the same buffer. The final concentration of DMSO in each experiment was […]
The data were fitted to a single-binding-site model using the MicroCal PEAQ-ITC analysis software provided by the manufacturer to obtain the stoichiometry n, the dissociation constant K d, and the enthalpy of binding ΔH . The reported values are the mean ± s.e.m. from independent measurements.
Isothermal titration calorimetry (ITC)of PROTACs
The titrations were all performed as reverse mode (protein in syringe, ligand in cell) and consisted of 19 injections of 2 µl protein solution (20 mM Bis–Tris propane, 100 mM NaCl, 1 mM tris(2-carboxyethyl)phosphine (TCEP), pH 7.4) at a rate of 0.5 µl/s at 120 s time intervals. An initial injection (0.4 µl) was made and discarded during data analysis. […]

| α (cooperativity) | Kd | ΔG | ΔH | –TΔS | ΔΔG | Compound |
| --- | --- | --- | --- | --- | --- | --- |
| 14.5 | 42 ± 6 nM | -10.01 kcal/mol | -7.75 kcal/mol | -2.34 kcal/mol | -1.6 ± 0.1 kcal/mol | Cc1ncsc1-c1ccc(CNC(=O)[C@@H]2[C@H](F)[C@@H](O)CN2C(=O)[C@@H](NC(=O)COCCOCCOCCNC(=O)C[C@@H]2N=C(c3ccc(Cl)cc3)c3c(sc(C)c3C)-n3c(C)nnc32)C(C)(C)C)cc1 [15b] |
| 9.5 | 26 ± 5 nM | -10.13 kcal/mol | -10.9 ± 0.7 kcal/mol | -0.6 ± 0.4 kcal/mol | -1.12 kcal/mol | Cc1ncsc1-c1ccc(CNC(=O)[C@@H]2[C@@H](F)[C@@H](O)CN2C(=O)[C@@H](NC(=O)COCCOCCOCCNC(=O)C[C@@H]2N=C(c3ccc(Cl)cc3)c3c(sc(C)c3C)-n3c(C)nnc32)C(C)(C)C)cc1 [15a] |
